# According to patent US4215136A, “Insoluble metal salts of N-acetyl-tryptophane and use thereof” (Cooperation Pharmaceutique Francaise, priority 1976, dated 1980):
# Read-outs that look alike come from different tables or passages of the source.
# What was measured:
# [1] = "Shay ulcer" test (pylorus ligature); type: in vivo, female rats (Sprague-Dawley OFA Iffa-Credo)
# Description: (A) Tests by the technique called "Shay ulcer" [Gastroenterology, 5, 43, (1945)].
# The study was carried out on female rats [Sprague-Dawley OFA Iffa-Credo] weighing 170±10 g, conforming to the experimental protocol described below.
# After fasting 48 hours, during which the rats had always available to them a 20% glucose solution, the pylorus was ligated and all beverage was eliminated.
# Compound A in the form of two suspensions respectively 5 and 10% in distilled water containing 3% of gum arabic was administered orally and before the ligature of the pylorus to three groups of animals, the animals of the first two groups receiving the 5% solution and those of the third the 10% solution. These three groups of animals received active substance to the extent respectively of 250 mg/kg as regards those of the first group, 500 mg/kg as regards those of the second and 1000 mg/kg those of the third. A fourth group and control group of animals received 10 ml/kg of bidistilled water. […]
# The tests having been carried out with aluminium acetyl-tryptophanate (compound A), on the one hand, and with titanium acetyl-tryptophanate (compound B), on the other hand, for each of these compounds there was determined, the "anti-ulcer dose 50" (or again active dose AD 50) by oral administration; for this determination the method of Litchfield and Wilcoxon [J. Pharmacol. 96, 98-111 (1949)], was employed. […]
# [2] = Interaction with a monoamine-oxidase inhibitor (MAOI, Tylciprine); type: in vivo, Sprague-Dawley male rats of OFA strain; conditions: for central nervous action indicated by hyperthermia and hyperactivity: with MAOI (Tylciprine)
# Description: III--Action on the central nervous system:
# (A) Interaction with a monoamine-oxidase inhibitor (MAOI):
# Sprague-Dawley male rats of OFA strain received 20 mg/kg intra peritoneally of Tylciprine (MAOI) and twenty minutes later, 3 g/kg of compound A (D,L) bucally.
# [3] = "stress ulcer" test (immobilization); type: in vivo, female S.P.F. Sprague-Dawley OFA Iffa-Credo rats
# Description: (B) Tests according to the technique called "stress ulcer". Rossi and Bonfils--Compte rendus de la Societe de Biologie, (1956), 150, page 2124.
# The study was carried out on female S.P.F. Sprague-Dawley OFA Iffa-Credo rats, weighing 140±10 g and adhering to the following experimental protocol.
# To cause the ulcer, the animals were immobilized in a flexible grid with meshes of 4×4 mm and suspended horizontally; they received neither food nor drink. They were sacrificed at the end of 24 hours. The stomachs were removed and opened and then the ulcers were counted with a binocular lens.
# Each stomach was assessed according to the method of J. M. LWOFF and the ulceration index calculated.
# The compound A suspended in distilled water with 3% of gum arabic was administered 48 hours and 24 hours before and at the time of placing under stress to three groups of animals. These animals each received by the oral route, 500, 1000 and 1500 mg/kg of this compound according to their group.
# A control group received for three days, orally gummy water in the amount of 1 ml/100 g.
# As in the case of "Shay ulcer" the same study was reproduced with kaolin.
# The kaolin was suspended in distilled water with 3% of gum arabic and was administered by the buccal route 48 hours and 24 hours before and at the time of placing under stress. […]
# [4] = 8640 min
# [5] = type: in vivo, male rats
# Source text: (B) Interaction with a MAOI after treatment with P.C.P.A.
# If the test is renewed under the same conditions but on male rats previously treated by decreasing doses of P.C.P.A. which is a tryptophane-hydroxylase inhibitor, it is observed that: […]
# [6] = "stress ulcer" technique aggravated by para-chloro-phenyl-alanine (PCPA); type: in vivo, female S.P.F. Sprague-Dawley OFA Iffa-Credo rats; conditions: PCPA 100 mg/kg intraperitoneally
# Description: (C) Tests according to the "stress ulcer" technique aggravated by para-chloro-phenyl-alanine (PCPA) administered in a non-blocking dose.
# The rats used were of the same sex, same strain and had the same weight as those used in the tests described under B. The experimental protocol was also the same.
# However, in these tests the rats received intraperitoneally, at the time of stressing, 100 mg/kg of PCPA in suspension in distilled water including 3% of gum arabic and an "absolute control" group was provided having received no preparation before placing under stress.
# By reason of the aggravation of the ulcers caused by the PCPA, the Lwoff assessment is no longer usable and is replaced by the following:
# 2 : three to four ulcers in the form of
# 5 : one to two ulcers in the form of "fur-
# 6 : three to four ulcers least 5 mm in length
# with a maximum of 4 + 6 = 10.
# In this way it was possible to determine the ulceration index and the percentage inhibition with respect to the controls.
# [7] = Activity on intestinal passage (vegetable carbon); type: in vivo, male mice; conditions: 2, 4 and 6 g/kg buccally; 10 minutes
# Description: II--Activity on intestinal passage:
# Male mice, fasting for 24 hours, weighing 18-20 g. were used.
# The substances to be tested were administered buccally before a suspension of vegetable carbon (10 g/100 ml).
# After 10 minutes, the animals were bled and the intestine was removed and examined.
# [8] = anti-ulcer activity after administering reserpine; type: in vivo, Sprague-Dawley female rats, OFA S.P.F. Iffa Credo strain; conditions: p.o., 3 hours before and 3 hours after reserpine 5 mg/kg i.p.; Litchfield and Wilcoxon; 1200 min
# Description: (D) Study of the anti-ulcer activity of compound A (D,L) and of compound B (D,L) after administering reserpine.
# The technique used was that of Cohen and A. Pessonnier (Ann. Pharm. Fr (1963) 21, 215-22) according to the following protocol:
# Sprague-Dawley female rats were used, of OFA S.P.F. Iffa Credo strain weighing 150±20 g; the rats received a single injection by the intraperitoneal route of 5 mg/kg of reserpine in solution in 0.25% acetic acid; the compound studied were administered twice by the buccal route: three hours before and three hours after the injection of reserpine; the rats were sacrificed 20 hours after the injection of reserpine; the assessment was established as follows:
# 1 = one to two ulcers in the form of small
# 2 = more than two ulcers
# 3 = one to two ulcers in the form of more or
# 4 = more than two ulcers
# 5 = one to two ulcers in the form of "furrows"
# measuring at least 5 mm
# 6 = more than two ulcers
# Maximum assessment for one stomach : 2 + 4 + 6 = 12
# From the results obtained the ulceration index was deduced; the percentage of inhibition was calculated with respect to the index obtained in the controls.
# The values of the AD50 calculated according to the method of Litchfield and Wilcoxon are: […]
# [9] = 2 g/kg, Tylciprine 20 mg/kg i.p.
# [10] = 3 g/kg bucally, Tylciprine 20 mg/kg i.p.
# [11] = after PCPA 6 mg/kg for 1 day, Tylciprine
smiles,measurement,setting,value
"CC(=O)N[C@@H](Cc1c[nH]c2ccccc12)C(=O)[O-].CC(=O)N[C@@H](Cc1c[nH]c2ccccc12)C(=O)[O-].CC(=O)N[C@@H](Cc1c[nH]c2ccccc12)C(=O)[O-].[Al+3] [Compound A, monobasic-(DL) aluminium N-acetyl-tryptophanate]",activity relative to that expected by reason of Al^3+ / Ti^4+ ions alone,[1]; Shay ulcer,about 7 times higher
same,"AD 50 (anti-ulcer dose 50), Shay ulcer","[1]; oral, before ligature of the pylorus, 18 hours, Litchfield and Wilcoxon",550 mg/kg
same,hyperactivity,[2]; [9],notable hyperactivity
same,hyperthermia,[2]; [9],does not cause hyperthermia
same,hyperthermia,"[2]; 3 g/kg bucally, 20 minutes after Tylciprine 20 mg/kg i.p.",Hyperthermia was observed which commenced fairly rapidly
same,hyperactivity,[2]; [10],hyperactivity
same,onset of hyperactivity,[2]; [10],80 min
same,time of maximum hyperactivity,[2]; [10],155 min
same,time of maximum hyperthermia,[2]; [10],185 min
same,central nervous action indicated by hyperthermia and hyperactivity,[2],"apparently central nervous serotoninergic action, that is to say antidepressive"
same,"AD 50, stress ulcer","[3]; buccal route, 48 h and 24 h before and at time of stress, sacrificed at 24 hours",700 mg/kg
same,"superiority of compound A (over kaolin), stress ulcer versus Shay ulcer",[3]; stress ulcer compared with Shay ulcer,still much more marked
same,LD50 (higher than the total dose without mortality),"[4]; oral, six days",> 15000 mg/kg
same,LD 50,[4]; orally,> 15000 mg/kg
same,hyperactivity,[5]; [11],notable hyperactivity
same,rectal temperature,[5]; [11],without variation in the rectal temperature
same,hyperactivity,"[5]; after PCPA 12.5 mg/kg for 1 day, Tylciprine",first signs of hyperactivity
same,hyperthermia and hyperactivity,"[5]; after PCPA 50 mg/kg for 2 days, Tylciprine",neither hyperthermia nor hyperactivity
same,passage through the hemato-cerebral barrier,"[5]; rat, in vivo",passage of its anion through the hemato-cerebral barrier
same,"anti-ulcer activity, stress ulcer aggravated by PCPA (in words)",[6],still considerable
same,"AD50, stress ulcer aggravated by PCPA",[6]; oral route,1325 mg/kg
same,increase of intestinal passage with respect to the controls,[7],No significant increase
same,"AD50, reserpine ulcer",[8],1447 mg/kg
N[C@@H](Cc1c[nH]c2ccccc12)C(=O)O [L-tryptophane],central nervous action indicated by hyperthermia and hyperactivity,[2],comparable activities
